Where “and” joins values, the source holds several entries; their conditions need not be identical. Equal entries are not always repeated.
Legend:
[1] = system: sensitization of TRPV1 mediated by PAR-2 activity; assay: Inhibition of sensitization of TRPV1 mediated by PAR-2 activity in sensory neurons in culture; CGRP levels (EIA); assay type: cell-based; conditions: rat DRG neurons, 15 min, PAR-2 agonist I 30 μM then capsaicin 1 μM
Description: Thus, the effectiveness and potential of the peptides in the inhibition of α-CGRP release due to TRPV-1 sensitization mediated by PAR-2 activity in culture of rat DRG neurons was evaluated.
DRG neurons in culture were incubated with the different treatments at the indicated concentrations in buffer medium HBSS (Hank's Balanced salt solution) for 15 min at 37° C., after which the neurons were sensitized by treatment with the PAR-2 agonist I at 30 μM for 15 min at 37° C. Lastly α-CGRP release was induced by treatment with capsaicin 1 μM for 5 min at 37° C. The supernatants were collected and the amount of α-CGRP released was determined by enzyme immunoassay using the Rat CGRP EIA kit (SPI-Bio, Societe de Pharmacologie et d'Immunologie-BIO, France) following the supplier's instructions. The intensity of the color, determined by reading the absorbency at 405 nm, is proportional to the amount of CGRP released. The relative values of CGRP released were determined by double standardization with regard to the basal release of CGRP of the negative control (cells treated with HBSS) and the maximum releases of CGRP induced by the treatment with the cells with the PAR-2 agonist I and capsaicin.

[2] = target: T1, PAR-2 (Homo sapiens, UniProt P55085); assay: Inhibition of the release of IL-6 induced by PAR-2 activity in human keratinocytes (ELISA); assay type: cell-based; conditions: 48 h, relative to agonist
T1 construct: endogenous in cells; host or cells: human keratinocytes
T1 sequence (P55085 26-397): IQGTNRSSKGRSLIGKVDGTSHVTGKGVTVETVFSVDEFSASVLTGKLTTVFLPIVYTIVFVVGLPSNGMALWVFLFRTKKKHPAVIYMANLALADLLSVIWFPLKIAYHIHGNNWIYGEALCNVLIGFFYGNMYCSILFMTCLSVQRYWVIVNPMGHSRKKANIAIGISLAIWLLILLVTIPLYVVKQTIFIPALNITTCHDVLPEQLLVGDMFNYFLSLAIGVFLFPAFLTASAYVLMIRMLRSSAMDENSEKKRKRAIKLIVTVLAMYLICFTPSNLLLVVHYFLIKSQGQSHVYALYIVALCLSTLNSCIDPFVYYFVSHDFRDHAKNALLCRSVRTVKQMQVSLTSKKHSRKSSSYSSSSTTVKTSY
Description: Human keratinocytes were cultivated in supplemented Epilife® medium until confluence was achieved. The cells were then separated by treatment with trypsin and seeded at a density of 18,000 cells per well in 96-well plates pre-treated with collagen matrix. After 48 hours of incubation in supplemented Epilife® medium at 37° C. in a humidified atmosphere of 5% CO2 a fresh medium was added with different concentrations of the product of the invention together with PAR2 Agonist I at 50 μM. Cells treated with supplemented Epilife® medium were added as a negative control (Control). The cells were incubated for another 48 hours under the same conditions, after which the supernatants were collected and the amount of IL-6 released was determined using the Human IL-6 ELISA Ready-SET-GOI® commercial kit (eBioscience, Inc.) following the supplier's instructions. The absorbance of each well was determined by reading the spectrophotometer Multiskan Ascent Reader at 450 nm correcting for each determination with its corresponding reading at 570 nm. The relative levels of IL-6 were calculated standardized with regard to the absorbance corresponding to the treatment of the cells with the PAR-2 Agonist I (maximum release of IL-6 in this cell model).

[3] = system: human epidermal keratinocytes; assay: Proliferation of human epidermal keratinocytes in culture (calcein-AM); assay type: cell-based; conditions: 24 h, (T-C)/C
Description: Cell proliferation was evaluated by a fluorescence-based cell viability method, in which the live cells are distinguished from the dead cells by the enzymatic conversion of calcein-AM to its fluorescent form.
Human keratinocytes were cultivated in DMEM supplemented with fetal bovine serum (FBS) until confluence was achieved. The cells were then separated using trypsin and were seeded at a density of 100,000 cells per well in 96-well plates. After 24 hours of incubation in DMEM at 37° C. in a humidified atmosphere at 5% CO2 a fresh medium was added with different concentrations of the product of the invention. Cells treated with DMEM as a negative control were used. The cells were incubated for another 24 hours under the same conditions and the medium was substituted by 100 μl of calcein-AM (Molecular Probes) at 0.4 μM diluted in phosphate buffered saline (PBS). After 30 minutes of incubation at 37° C. the fluorescence was measured at excitation 485 nm and emission 530 nm in a plate reader (Genios, Tecan). The total growth percentage was calculated as T/C×100 wherein T is the fluorescence of the wells treated with the peptides of the invention and C the fluorescence of the control wells treated with DMEM.

[4] = system: human epidermal keratinocytes; assay: Induction of healing in human epidermal keratinocytes in culture (cell-free area closure); assay type: cell-based; conditions: 48 h, (A0-A48)/A0
Description: Human keratinocytes were cultivated in DMEM supplemented with fetal bovine serum (FBS) until confluence was achieved. The cells were then separated using trypsin and were seeded at a density of 50,000 cells per well in 48-well plates. After 48 hours of incubation in DMEM at 37° C. in a humidified atmosphere at 5% CO2 a cut in the cultivation with a pipette point to create an area without cells simulating an injury and photographs were taken of said area with a Zeiss Axiovert 40 CFL microscope equipped with a AxioCam MRc5 camera, calculating the area of the zone without cells using the (A0) equipment software. A fresh medium was then added with different concentrations of the product of the invention. Cells treated with DMEM as a negative control were used, and cells treated with DMEM and FBS as the positive healing control. The cells were incubated for another 48 hours under the same conditions to enable cell migration in the injury area, after which photographs were taken of the injury area once again and the corresponding areas of the zones without cells were calculated (A48).
The healing percentage was calculated as the ratio of the reduction to the area without cells after 48 hours and the area without cells before incubation with the peptide [(A0-A48)/A0].

[5] = system: human dermal fibroblasts; assay: Photoprotective effectiveness in human dermal fibroblasts (solar simulation lamp, Neutral Red); assay type: cell-based; conditions: 0.01 μg/mL
Description: The human dermal fibroblasts were maintained in culture for 24 hours in […] or phosphate buffered saline (irradiated control, IC) for 1 hour at 37° C. and humidified air with 5% CO2. The cells were then irradiated with a solar simulation lamp with an energy of 37 J/cm^2 at room temperature for 150 min. A control plate was kept in the dark for the same time at room temperature (non-irradiated control, NIC). After the irradiation period the cell medium was replaced by a fresh one and the cells were incubated for another 24 hours. Cell viability was determined by Neutral Red dye, measuring the optical density at 540 nm in a spectrophotometer, standardizing the values of each simple with regard to the cell viability of the non-irradiated control sample (CVNIC).

[6] = In vivo study of skin hydration (Corneometer CM 825, legs); set-up: species or system human; conditions: versus placebo composition
Description: A comparative in vivo study of the hydrating capacity of the skin of the cosmetic composition in example 22 and its placebo composition, which contained the same ingredients and in the same percentages as the composition of example 22, except the peptide of the invention, Ac-L-Phe-L-Phe-L-Trp-L-Phe-L-His-L-Val-NH2, which was substituted by water.
The measurements of this study were carried out after the test persons were acclimatized for 45 minutes in a bioclimatic room (22° C.; 60% relative humidity) and with the purpose of maintaining the temperature and humidity constant during the measuring. The measurements of skin hydration were carried out on the legs using a Corneometer® CM 825 (Courage & Khazaka, Germany). […]
All the volunteers applied the placebo composition on their right leg and the cosmetic composition from Example 22 on their left legs twice a day for 4 weeks, always applying the placebo composition to the right leg and the composition from example 22 to the left leg. […] Skin measurement values were measured at three different places within the respective testing areas. The recorded values were averaged. […]

[7] = system: Reconstructed human epidermis (RHE); assay: Anti-sensitizing potential: IL-8 expression in reconstructed human epidermis (RHE), ELISA; assay type: cell-based; conditions: versus placebo composition; allergens cinnamal and farnesol
Description: Cosmetic creams containing parfums normally show allergic reactions due to some allergenic components like cinnamal or farnesol. The purpose of this experiment was to evaluate the anti-sensitizing potential of a cosmetic cream of Example 23 containing cinnamal, farnesol and the peptide Ac-L-Phe-L-Phe-L-Trp-L-Phe-L-His-L-Val-NH2, compared with a placebo cream (composition of Example 23 without the ingredients of phase C). In order to determine the anti-sensitizing potential the level of interleukin-8, IL-8 was measured for both creams in RHE tissues after 24 h of cream application.
Commercial RHE tissues (SkinEthic, Lyon, RHE/S/17) (0.5 cm^2) were treated in triplicate with 15 μg of the composition of Example 23 and the placebo composition over the surface of the tissue. After 24 hours of incubation in growth medium at 37° C. in a humidified atmosphere at 5% CO2, the IL-8 expression in the treated RHE tissues was determined using the ELISA Interleukin detection kit (Invitrogen) following the supplier's instructions. The absorbance was determined by reading the spectrophotometer Synergy MX, Biotek, at 450 nm.

[8] = peptide 0.1 mg/mL with PAR2 Agonist I 50 μM
[9] = peptide 0.5 mg/mL with PAR2 Agonist I 50 μM

Row | Substance | % CGRP ([1]; peptide 25 μg/mL) [%] | % CGRP ([1]; peptide 0.5 mg/mL) [%] | % IL-6 [2, 8] [%] | % IL-6 [2, 9] [%] | % Stimulation of proliferation ([3]; 10 μg/mL) [%] | % Stimulation of proliferation ([3]; 25 μg/mL) | % Healing ([4]; 25 μg/mL) [%] | % Healing ([4]; 0.5 mg/mL) | % PHOTOPROTECTIVE EFFECTIVENESS ([5]; (CVi-CVIC)/CVIC versus irradiated control) [%] | CELL VIABILITY (%) ([5]; irradiated 37 J/cm^2, 150 min, relative to non-irradiated control) | skin hydration (in words) [6] | IL-8 expression / release of cytokines (in words) [7]
1 | Ac-FFWDIV-NH2 [Ac-L-Phe-L-Phe-L-Trp-L-Asp-L-Ile-L-Val-NH2] | 78.7 | 20.3 | 36.2 | 11.5 | – | – | – | – | – | – | – | –
2 | Ac-FFWFHV-NH2 [Ac-L-Phe-L-Phe-L-Trp-L-Phe-L-His-L-Val-NH2] | 58.9 | 17.7 | 61.8 | 30.4 | 21.3 | 23% and 23.2% | 40.0 | 45% and 44.8% | 105.9 | 37.1 | improves the skin's hydration in vivo | highly counteract the release of cytokines induced by cosmetic allergens
3 | Ac-FMWFHV-NH2 [Ac-L-Phe-L-Met-L-Trp-L-Phe-L-His-L-Val-NH2] | 70.1 | 20.2 | 84.6 | 42.3 | – | – | – | – | – | – | – | –

From patent publication US9333152B2, “Peptides which inhibit activated receptors and their use in cosmetic or pharmaceutical compositions” (LIPOTEC, S.A., priority 2011, dated 2016)
